In patent US12097200B2, “Combination of BI853520 with chemotherapeutic drugs” (INXMED (NANJING) CO., LTD., priority 2020, dated 2024):
“And” between values parts separate entries of the source, which are not always exact repeats. Identical values can stand only once.

How the values were obtained:
TOV-21G cells = assay: Antitumor activity in mouse model of human ovarian cancer (TOV-21G xenograft); type: in vivo; details: combination of both
Excerpt: (§1) For tumor volume, absolute values were used.
(§2) Appropriate statistical methods were used for evaluation.
TOV-21G cells harboring KRAS and PIK3CA gene mutations were obtained from ATCC (CRL-11730).

SKOV-3 cells = assay: Antitumor activity in mouse model of human ovarian cancer (SKOV-3 xenograft); type: in vivo; details: combination of both
Excerpt: as §1, §2
SKOV-3 cells harboring CDKN2, MLH1, PIK3CA and TP53 gene mutations were obtained from ATCC (HTB-77).
PLD (Doxil) was purchased from Johnson & Johnson and dissolved in sterile 5% glucose solution.
Treatment was initiated when the median tumor volume was between 70 and 110 mm^3.

A2780 cells = assay: Antitumor activity in mouse model of human ovarian cancer (A2780 xenograft); type: in vivo
Excerpt: as §1, §2
A2780 cells harboring PTEN gene mutations were obtained from ECACC (93112519).

CTG-0868 = assay: Antitumor activity in ovarian cancer PDX model CTG-0868; type: in vivo, mouse; details: 25 days until end of test, doses as Table 3
Method: (§3) Body weights (at start of dosing) were approximately 20 grams. […] Immunocompromised female mice were housed in HEPA ventilated cages (Innocage® IVC, Innovive USA) at 68-74° F. (20-23° C.) and 30-70% humidity under a 12-hour light/12-hour dark cycle. […] Animals with >10% body weight loss compared to day 0 received DietAel 76A (ClearH2O®, Portland, ME) for free. There were 3 mice in each group.
(§4) Mice were implanted with tumor cells from the ChampionsTumorGraft® ovarian model, which was established from patients previously treated with platinum-based therapy. After tumors reached 1000-1500 mm^3, they were collected, and tumor fragments SCs were implanted in the left flank of female pre-study mice. Each study animal was implanted with a specific passage batch. Tumor volume was measured twice a week with calipers to monitor tumor growth, and tumor volume (TV) was calculated using the formula (0.52×[length×width^2]). […] After initiation of dosing, animals were weighed daily using a digital scale and TV was measured twice weekly. […]
(§5) Inhibitory effect on tumor growth was determined by calculating TGI (100%×[1−(final MTV−initial MTV of the treatment group)/(final MTV−initial MTV of the control group)]). […]
(§6) CR: no TV could be detected (<4×4 mm^2), in 2 consecutive measurements […]

CTG-0956 = assay: Antitumor activity in ovarian cancer PDX model CTG-0956; type: in vivo, mouse; details: CTG-0956 (carboplatin and paclitaxel-resistant); 67 days until end of test; doses as Table 3
Method: as §3, §4, §5, §6

CTG-0958 = assay: Antitumor activity in ovarian cancer PDX model CTG-0958; type: in vivo, mouse; details: 52 days until end of test, doses as Table 3
Method: as §3, §4, §5, §6

CTG-0964 = assay: Antitumor activity in ovarian cancer PDX model CTG-0964; type: in vivo, mouse; details: CTG-0964 (carboplatin and paclitaxel-resistant); 35 days until end of test; doses as Table 3
Method: as §3, §4, §5, §6

CTG-0992 = assay: Antitumor activity in ovarian cancer PDX model CTG-0992; type: in vivo, mouse; details: CTG-0992 (carboplatin and paclitaxel-resistant); 60 days until end of test; doses as Table 3
Method: as §3, §4, §5, §6

CTG-1086 = assay: Antitumor activity in ovarian cancer PDX model CTG-1086; type: in vivo, mouse; details: 28 days until end of test, doses as Table 3
Method: as §3, §4, §5, §6

CTG-1180 = assay: Antitumor activity in ovarian cancer PDX model CTG-1180; type: in vivo, mouse; details: CTG-1180 (carboplatin and paclitaxel-resistant); 42 days until end of test; doses as Table 3
Method: as §3, §4, §5, §6

CTG-1395 = assay: Antitumor activity in ovarian cancer PDX model CTG-1395; type: in vivo, mouse; details: 33 days until end of test, doses as Table 3
Method: as §3, §4, §5, §6

CTG-1433 = assay: Antitumor activity in ovarian cancer PDX model CTG-1433; type: in vivo, mouse; details: CTG-1433 (carboplatin and paclitaxel-resistant); 49 days until end of test; doses as Table 3
Method: as §3, §4, §5, §6

CTG-1498 = assay: Antitumor activity in ovarian cancer PDX model CTG-1498; type: in vivo, mouse; details: CTG-1498 (carboplatin and paclitaxel-resistant); 98 days until end of test; doses as Table 3
Method: as §3, §4, §5, §6

CTG-1602 = assay: Antitumor activity in ovarian cancer PDX model CTG-1602; type: in vivo, mouse; details: 14 days until end of test, doses as Table 3
Method: as §3, §4, §5, §6

CTG-1627 = assay: Antitumor activity in ovarian cancer PDX model CTG-1627; type: in vivo, mouse; details: 28 days until end of test, doses as Table 3
Method: as §3, §4, §5, §6

CTG-1649 = assay: Antitumor activity in ovarian cancer PDX model CTG-1649; type: in vivo, mouse; details: 40 days until end of test, doses as Table 3
Method: as §3, §4, §5, §6

CTG-1677 = assay: Antitumor activity in ovarian cancer PDX model CTG-1677; type: in vivo, mouse; details: 32 days until end of test, doses as Table 3
Method: as §3, §4, §5, §6

KYSE-270 cells = assay: Antitumor activity in mouse xenograft model of human esophageal cancer (KYSE-270); type: in vivo; details: KYSE-270 xenograft, combination of both
Excerpt: as §1, §2
Mice were approximately 8-10 weeks old.
KYSE-270 was a cell line for esophageal cancer (Public Health England, Cat. No. 94072021).

HS 746T cells = assay: Antitumor activity in mouse xenograft model of human gastric cancer (HS 746T); type: in vivo; details: HS 746T xenograft, combination of both
Excerpt: as §1, §2
HS 746T: Approximately 6 week old mice.

NCI-H520 cells = details: NCI-H520 xenograft, day 22, combination of both
Method: Mice were approximately 6 weeks old. There were 5 mice in each group.
The cell concentration of the culture was maintained between 8×10^6 to 12×10^7 cells/tissue culture flask.
Cisplatin was dissolved in 0.9% saline.
Statistical evaluation was performed using the Student's t-test function in Microsoft Excel, utilizing a two-tailed distribution and a two-sample equal variance type.

CTG-1166 = assay: Antitumor activity in ChampionsTumorGraft PDX ovarian cancer model CTG-1166
Method: as §3
Mice were implanted with tumor cells from the ChampionsTumorGraft® ovarian model, which was established from patients previously treated with platinum-based therapy. After tumors reached 1000-1500 mm^3, they were collected, and tumor fragments SCs were implanted in the left flank of female pre-study mice. Each study animal was implanted with a specific passage batch. Tumor volume was measured twice a week with calipers to monitor tumor growth, and tumor volume (TV) was calculated using the formula (0.52×[length×width^2]). When TV reached approximately 250-350 mm^3 (average 300 mm^3), animals were matched to tumor size and assigned to the control or treatment groups (study mice) and dosing started on day 0. After initiation of dosing, animals were weighed daily using a digital scale and TV was measured twice weekly. The study was terminated when the mean tumor volume in the control group reached approximately 1500 mm^3 or until day 60. In some models, the study was extended beyond Day 60 and dosing was also extended to the end of the study. Individual animals could be removed from the study when tumor volume reaches approximately 1500 mm^3.
Control 1: 0.5% Natrosol; control 2: 5% sterile glucose.
The control group for oral administration was 0.5% Natrosol. The control group for intravenous administration was 5% sterile glucose.
Carboplatin was a pre-formulated 10 mg/mL stock solution. PLD was a pre-formulated 2 mg/mL stock solution. Paclitaxel was a pre-formulated 6 mg/mL stock solution. These standard chemotherapeutic drugs were provided by Champions.
Data for each group, including body weight for each animal and mean body weight, were recorded, and the percentage change in mean body weight (% vD0) for each group relative to Day 0 was recorded, and the % vD0 was plotted at the completion of the study.
Animal deaths were recorded daily and determined as drug-related (D), technical (T), tumor-related (B), or unknown (U) based on weight loss and by visual inspection. […] The maximum mean % vD0 (body weight nadir) for each treatment group was reported at the end of the study.
Inhibitory effect on tumor growth was determined by calculating TGI (100%×[1−(final MTV−initial MTV of the treatment group)/(final MTV−initial MTV of the control group)]). Treatment was started on day 0. Tumor volumes in the treatment group were compared with those in the control group on the day the study was completed.
Other endpoints used to assess efficacy included number of CR, PR and TFS. PR and TFS were considered to exclude CR.
PR: TV≤30% of TV on day 0, in 2 consecutive measurements
CR: no TV could be detected (<4×4 mm^2), in 2 consecutive measurements
TFS: CR that persisted until the study was completed
Data were used for statistical analysis at the end of the study. Statistical comparisons of tumor volumes were performed using one-way analysis of variance followed by Newman-Keuls multiple comparison test to compare differences between all groups. Selected endpoints included as many groups as possible and as many animals per group as possible.
Tumor volumes from animals removed early due to tumor volume ≥1500 mm^3 were carried forward for analysis, but not more than 4 consecutive measurement time points.

PC-3 cells = assay: Antitumor activity in mouse xenograft model of human prostate cancer (PC-3); details: PC-3 xenograft, combination of both
[1] = day 22, BI 853520 12.5 mg/kg qd by gavage, PLD 1 mg/kg q7d i.v.
[2] = BI 853520 50 mg/kg qd, paclitaxel 10 mg/kg q7d
[3] = BI 853520 50 mg/kg qd, docetaxel 10 mg/kg q7d
[4] = BI 853520 50 mg/kg qd, cisplatin 5 mg/kg IP q7d
[5] = CTG-1166 PDX, Day 0-56, n=3 per group, doses as Table 4
[6] = CTG-1166 PDX, day 17, BI 853520 50 mg/kg PO BID, PLD 3 mg/kg IV q7d, carboplatin 25 mg/kg IP q7dx3 + paclitaxel 20 mg/kg IV q7dx3
[7] = BI 853520 25 mg/kg qd, docetaxel 7.5 mg/kg q7d

COc1cc(C(=O)NC2CCN(C)CC2)c(F)cc1Nc1ncc(C(F)(F)F)c(Oc2cccc3c2C(=O)N(C)C3)n1 [BI 853520, 2-fluoro-5-methoxy-4-[(4-(2-methyl-3-oxo-2,3-dihydro-1H-isoindole-4-oxy)-5-trifluoromethyl-pyrimidin-2-yl)amino]-N-(1-methyl-piperidin-4-yl)benzamide]
Antitumor effect (in words) (TOV-21G cells; BI 853520 12.5 mg/kg qd, PLD 1 mg/kg q7d): good efficacy at low doses
TGI (TOV-21G cells; day 1 to day 22, median tumor volumes, BI 853520 12.5 mg/kg qd, PLD 1 mg/kg q7d): 67%
Median tumor volume (TOV-21G cells; [1]): 271 mm^3
Tumor regression (animals with regression/animals in group) (TOV-21G cells; [1]): no tumor regression and 0/7
TGI (SKOV-3 cells; day 1 to day 22, median tumor volumes, BI 853520 50 mg/kg qd, PLD 5 mg/kg q7d): 57%
Median tumor volume (SKOV-3 cells; day 22, BI 853520 50 mg/kg qd by gavage, PLD 5 mg/kg q7d i.v.): 306 mm^3
Tumor regression (animals with regression/animals in group) (SKOV-3 cells; day 22, BI 853520 50 mg/kg qd, PLD 5 mg/kg q7d): no tumor regression and 0/7
Antitumor effect (in words) (A2780 cells; BI 853520 25 and 50 mg/kg qd, PLD 5 mg/kg q7d, combination 50 + 5 mg/kg): efficacy of BI 853520 was observed at medium and high dose levels
TGI (A2780 cells; day 1 to day 15, BI 853520 12.5 mg/kg qd): 19%
TGI (A2780 cells; day 1 to day 15, BI 853520 25 mg/kg qd): 83%
TGI (A2780 cells; day 1 to day 15, BI 853520 50 mg/kg qd, PLD 5 mg/kg q7d, combination of both): 85%
Median tumor volume (A2780 cells; day 15, BI 853520 12.5 mg/kg qd by gavage): 968 mm^3
Tumor regression (animals with regression/animals in group) (A2780 cells; day 15, BI 853520 12.5 mg/kg qd, 12.5 mg/kg): no tumor regression and 0/10
Median tumor volume (A2780 cells; day 15, BI 853520 25 mg/kg qd by gavage): 284 mm^3
Tumor regression (animals with regression/animals in group) (A2780 cells; day 15, BI 853520 25 mg/kg qd, 25 mg/kg): no tumor regression and 0/10
Median tumor volume (A2780 cells; day 15, BI 853520 50 mg/kg qd by gavage, PLD 5 mg/kg q7d i.v., combination of both): 262 mm^3
Tumor regression (animals with regression/animals in group) (A2780 cells; day 15, BI 853520 50 mg/kg qd, PLD 5 mg/kg q7d, combination of both): no tumor regression and 0/10
TGI (%) (CTG-0868): 54%
TGI (%) (CTG-0956): 77%
TGI (%) (CTG-0958): 99%
TGI (%) (CTG-0964): 66%
TGI (%) (CTG-0992): 49%
TGI (%) (CTG-1086): 39%
TGI (%) (CTG-1180): 33%
TGI (%) (CTG-1395): 41%
TGI (%) (CTG-1433): 61%
TGI (%) (CTG-1498): 128%
TGI (%) (CTG-1602): −1%
TGI (%) (CTG-1627): 50%
TGI (%) (CTG-1649): 71%
TGI (%) (CTG-1677): 51%
Median tumor volume (KYSE-270 cells; day 13, BI 853520 50 mg/kg qd by gavage, paclitaxel 10 mg/kg q7d i.v.): 126 mm^3
TGI (KYSE-270 cells; day 13, BI 853520 50 mg/kg qd, paclitaxel 10 mg/kg q7d): 106%
Antitumor effect (in words) (KYSE-270 cells; [2]): had inhibitory effect on tumor growth
Change in median body weight (KYSE-270 cells; [2]): 2.8%
Tumor regression (animals with regression/animals in group) (KYSE-270 cells; [2]): 6 of 7 and 6/7
Median tumor volume (HS 746T cells; day 24 (withdrawal on day 28), BI 853520 50 mg/kg qd by gavage, docetaxel 10 mg/kg q7d i.v.): 229 mm^3
Antitumor effect (in words) (HS 746T cells; [3]): had inhibitory effect
Change in median body weight (HS 746T cells; [3]): 7.3%
TGI (HS 746T cells; [3]): 93%
Tumor regression (animals with regression/animals in group) (HS 746T cells; [3]): 1 of 8 and 1/8
Median tumor volume (NCI-H520 cells; BI 853520 50 mg/kg qd by gavage, cisplatin 5 mg/kg IP once a week): 352 mm^3
Median TGI (NCI-H520 cells; [4]): 54%
Tumor regression (animals with regression/animals in group) (NCI-H520 cells; [4]): 0/7
#CR (complete responses) (CTG-1166; [5]): 0/0/0
#PR (partial responses) (CTG-1166; [5]): 0/0/0
#TFS (tumor-free survivors) (CTG-1166; [5]): 0/0/0
Body weight (day 17) % vD0 (CTG-1166; CTG-1166 PDX, day 17, change in mean body weight relative to Day 0): 4.0%
% TGI (CTG-1166; [6]): 89%
Tumor volume (day 17) Mean ± SEM (CTG-1166; [6]): 366 ± 78 mm^3
Dead Total (CTG-1166; CTG-1166 PDX, animal deaths, n=3 per group): 0
Body weight nadir Day (CTG-1166; CTG-1166 PDX, day of body weight nadir): 13
Antitumor activity (in words) (CTG-1166; CTG-1166 PDX, doses as Table 4): significant inhibitory effect on tumor growth
Body weight (day 17) Mean ± SEM (CTG-1166; mouse, in vivo): 26.7 ± 0.4 g
Body weight nadir % vD0(max) (CTG-1166; mouse, in vivo, po, 50 mg/kg): −0.7%
Median tumor volume (PC-3 cells; day 35 (withdrawal on day 28), BI 853520 25 mg/kg qd by gavage, docetaxel 7.5 mg/kg q7d i.v.): 316 mm^3
Antitumor effect (in words) (PC-3 cells; [7]): certain inhibitory effect on tumor growth
Change in median body weight (PC-3 cells; [7]): 2.4%
TGI (PC-3 cells; [7]): 66%
Tumor regression (animals with regression/animals in group) (PC-3 cells; [7]): 0/7
